Laboratory results as given in patent US5714469A, “Method of treating sepsis” (priority 1994, dated 1998).

Tested on: clinical isolate of E. coli isolated from sputum
Test: Antibiotic sensitivity by disc-agar diffusion technique
Format: cell-based
Experimental: A clinical isolate of E. coli isolated from sputum was utilized. […] The organism was animal passed in mice and subsequently recovered and plated onto MacConkey's agar. The reisolated organisms were grown overnight in brain-heart infusion broth, and then stored frozen at -70° C. The inoculate the fibrin clot, organisms from thawed stocks were inoculated into brainheart infusion broth and incubated overnight on a rotary shaker (120 rpm) an 37° C. The E. coli was harvested by centrifugation, washed 3X and finally resuspended in normal saline. The number or organisms was quantified by turbidimentry, and the concentration adjusted with normal saline. All inoculum sizes were based on viable counts determined by scoring colony forming units on MacConkeys agar.

| Compound | antibiotic sensitivity of the E. coli isolate |
| --- | --- |
| CC1(C)S[C@@H]2[C@H](NC(=O)[C@H](N)c3ccccc3)C(=O)N2[C@H]1C(=O)O [ampicillin] | sensitive |
| CN[C@H](CC(C)C)C(=O)N[C@H]1C(=O)N[C@@H](CC(N)=O)C(=O)N[C@H]2C(=O)N[C@H]3C(=O)N[C@H](C(=O)N[C@H](C(=O)O)c4cc(O)cc(O)c4-c4cc3ccc4O)[C@H](O)c3ccc(c(Cl)c3)Oc3cc2cc(c3O[C@@H]2O[C@H](CO)[C@@H](O)[C@H](O)[C@H]2O[C@H]2C[C@](C)(N)[C@H](O)[C@H](C)O2)Oc2ccc(cc2Cl)[C@H]1O [vancomycin] | resistant |
| gentamicin | sensitive |
| NC[C@H]1O[C@H](O[C@H]2[C@H](O)[C@@H](O[C@H]3O[C@H](CO)[C@@H](O)[C@H](N)[C@H]3O)[C@H](N)C[C@@H]2N)[C@H](O)[C@@H](O)[C@@H]1O [kanamycin] | sensitive |
| CC1(C)S[C@@H]2[C@H](NC(=O)Cc3ccccc3)C(=O)N2[C@H]1C(=O)O [penicillin G] | resistant |
| trimethoprin/sulfamethoxazole | sensitive |
| CC(=O)OCC1=C(C(=O)O)N2C(=O)[C@@H](NC(=O)Cc3cccs3)[C@H]2SC1 [cephalothin] | sensitive |
| CC[C@H]1OC(=O)[C@H](C)[C@@H](O[C@H]2C[C@@](C)(OC)[C@@H](O)[C@H](C)O2)[C@H](C)[C@@H](O[C@@H]2O[C@H](C)C[C@H](N(C)C)[C@H]2O)[C@](C)(O)C[C@@H](C)C(=O)[C@H](C)[C@@H](O)[C@]1(C)O [erythromycin] | resistant |
| O=C(N[C@H](CO)[C@H](O)c1ccc([N+](=O)[O-])cc1)C(Cl)Cl [chloramphenicol] | sensitive |
| CN(C)[C@@H]1C(O)=C(C(N)=O)C(=O)[C@@]2(O)C(O)=C3C(=O)c4c(O)cccc4[C@@](C)(O)[C@H]3C[C@@H]12 [tetracycline] | sensitive |
